Results on three molecules are retold here after patent US20080292699A1, “SOLID PHARMACEUTICAL DOSAGE UNIT FOR A[…] OF RHINORRHEA” (SOVEREIGN PHARMACEUTICALS, LTD., priority 2007, published 2008).

Where a name gives a salt, the structure may show the parent alone.

The nature of the series: Dissolution testing of the bi-layered tablet (USP I, baskets, 0.01 N HCl). Format: physicochemical. The following applies: 500 mL 0.01 N HCl, 37° C., 100 rpm, average of six tablets.
Setting [1] is: Time 2 hr, sustained release layer.
[2] abbreviates: Time 4 hr, sustained release layer.
Setting [3] is: Time 8 hr, sustained release layer.

Description: Place 500 mL (+/−5 mL) of 0.01 N HCl in each vessel of the dissolution apparatus (USP I, baskets). Allow media to equilibrate to 37° C.+/−0.5° C. […] Select 6 tablets at random and record weight of each tablet. […] Put one tablet into each basket. Turn dissolution apparatus on to a rate of 100 rpm. […] Withdraw samples through a 45 μm porous polyethylene filter disc (Whatman GE/X or Millipore Millex-GN) at 45 minutes, 2, 4 and 8 hours. […] Inject filtered samples into a gas chromatograph, injecting one standard (as used for calibration) after every six samples. Gas Chromatography: Instrument: Waters Alliance 2695 Separation Module Column: Waters μBondapak C18 Column, 10 μm, 3.9×300 mm; PN WAT027324 Column Temperature: 52° C. Flow Rate: 1.8 mL per minute Injection Volume: 200 μL Detector: UV at 257 nm Mobile Phase: A: Methanol • B: Pic-B8 (for every liter of Pic-B8 aqueous solution, dissolve 2.164 g of 1-octanesulfonic acid sodium salt in water and add 20 mL of glacial acetic acid) [table]

For `CNC[C@H](O)c1cccc(O)c1` [PEH, Phenylephrine HCl], the “Average Amount Released [%]” value is, setting by setting: under setting [1], 43.6%; under setting [2], 65.8%; under setting [3], 89.0%.
Consider Methscopolamine Nitrate [MSPN], for which, under “Time 45 min, immediate release layer”, the “Average Amount Released [%]” value is on record as 100.2%.
For the molecule `CN(C)CCC(c1ccc(Cl)cc1)c1ccccn1` (stereo not shown) [CPM, Chlorpheniramine Maleate], the “Average Amount Released [%]” value reads like this: under setting [1], 33.3%; under setting [2], 57.1%; under setting [3], 87.0%.
